Data reported in US20230312564A1, “AROMATIC RING-LACTAM COMPOUND, PREPARATION METHOD THEREFOR AND USE THEREOF” (SHANGHAI RINGENE BIOPHARMA CO., LTD., priority 2020, published 2023).
Where “and” joins values, the source holds several entries; their conditions need not be identical. Equal entries are not always repeated. Where two headings read alike, the source gives them in different places. Each block holds one compound with its values, some of them ahead of it.

Key:
[1] = Liver microsomal metabolic stability, rat; format: in vitro ADME; conditions: 0.5 mg/mL microsomes, 1 μM compound, NADPH; for half-life at 1 μM: liver microsomes, read-out: Liver microsomal stability T1/2
Procedure: (§1) The reaction was stopped with tinidazole-containing acetonitrile at 0 min, 5 min, 10 min and 30 min, respectively. After vortexing for 10 min and centrifuging at 15,000 rmp for 10 min, 50 μL of the supernatant was injected into a 96-well plate. The metabolic stability of the compound was calculated by determining the relative reduction of the drug, calculated as half-life T1/2.

[2] = Liver microsomal metabolic stability, human; format: in vitro ADME; conditions: 0.5 mg/mL microsomes, 1 μM compound, NADPH; for half-life at 1 μM: liver microsomes, read-out: Liver microsomal stability T1/2
Procedure: as §1

[3] = Liver microsomal metabolic stability, dog; format: in vitro ADME; conditions: 0.5 mg/mL microsomes, 1 μM compound, NADPH; for half-life at 1 μM: liver microsomes, read-out: Liver microsomal stability T1/2
Procedure: as §1

Colo-205 cells = experiment: Colo-205 tumor cell proliferation, CCK-8, 72 hours; format: cell-based; conditions: for IC50: read-out: Colo-205 IC50; for cell proliferation inhibitory activity (in words): Colo-205
Procedure: 1. Test method: Colo-205 cells (ATCC) in logarithmic growth phase were inoculated into a 96-well culture plate at an appropriate density with 90 μL per well. After overnight culture, different concentrations of the compound were added and acted for 72 hours, and a solvent control group (negative control) was set. After the compound was acted on cells for 72 hours, the effect of the compound on cell proliferation was detected by the cell counting kit CCK-8 (Dojindo), and 10 μL of CCK-8 reagent was added to each well. After the plate was placed in a 37° C. incubator for 2 to 4 hours, a full-wavelength microplate reader SpectraMax 190 was adopted for obtaining the readings with a measured wavelength of 450 nm. […] The IC50 value was obtained by four-parameter regression with the software attached to the microplate reader.

[4] = Liver microsomal stability, comparisons in words across species; format: in vitro ADME
Procedure: as §1

ERK1/2 kinase = tested on: T1, ERK1/2 kinase; experiment: ERK1/2 kinase (Carna) inhibitory activity, Caliper mobility shift; format: biochemical; conditions: for IC50: read-out: ERK½ IC50
T1 construct: fused on or other part: Carna's ERK products carry a GST tag by vendor knowledge
Procedure: (1) Preparation of 1×Kinase buffer; (2) preparation of compound concentration gradient: the initial test concentration of the tested compound was 10 μM, which was 3-fold diluted to 10 concentrations, and a duplicate test was conducted, and then the tested compound was diluted in a 96 well plate to a 100-fold final concentration of 10 different concentrations of solution. […] Log (inhibitor) vs. response—Variable slope of the analysis software GraphPad Prism 5 was used to fit the dose-effect curve to obtain the IC50 value of each compound on the enzyme activity.
2. […] (A<10 nM, 10 nM≤B<200 nM, C≥200 nM)

[5] = In-vivo pharmacokinetic parameters in mice; set-up: species or system Balb-c mice
Procedure: Six male SPF grade SD rats or Balb-c mice (Shanghai Sipple-Bikai Laboratory Animal) were divided into two groups, and the tested compounds were prepared into appropriate solutions or suspensions; one group was administered intravenously (with a dose of 1 mg/kg), and the other group was administered orally (with a dose of 5 mg/kg). Blood samples were collected by jugular vein puncture, and each sample was collected with a volume of about 0.2 mL/time point, and heparin sodium was used for anticoagulation. The time points of blood collection were listed below: 5, 15 and 30 min […], 1, 2, 4, 6, 8 and 24 h after administration; the collected blood samples were placed on ice and centrifuged to separate plasma (centrifugation conditions: 8,000 rpm, 6 min, 2 to 8° C.), and the collected plasma was stored at −80° C. before analysis. Plasma samples were analyzed by LC-MS/MS.
The pharmacokinetic parameters such as AUC0-t, AUC0-∞, MRT0-∞, Cmax, Tmax, T1/2 and Vd of the tested compounds and their mean values and standard deviations were calculated by the pharmacokinetic calculation software WinNonlin5.2 non-compartmental model according to the plasma concentration data. In addition, the bioavailability (F) was calculated by the following formula.
For samples with concentrations below the lower limit of quantitation, while pharmacokinetic parameter calculations were performed, samples sampled before Cmax was reached should be calculated as a zero value and samples sampled after Cmax was reached should be calculated as below limit of quantitation (BLQ).

[6] = tested on: Colo-205 transplanted tumor; experiment: Growth inhibition of nude mice Colo-205 transplanted tumor; format: in vivo; conditions: 50 mg/kg, qdx21, po
Procedure: The tumor tissue in the vigorous growth phase was cut into about 1.5 mm^3 and inoculated subcutaneously in the right axilla of nude mice under sterile conditions. The diameter of subcutaneous transplanted tumors in nude mice was measured with a vernier caliper, and the mice were randomly divided into groups when the average tumor volume reached about 130 mm^3. The embodiment compounds (injection water containing 1% Tween 80 were configured to a desired concentration for later use) were orally administered daily at a given dose for three consecutive weeks, and the solvent control group was administered with the same amount of solvent. During the whole test, the diameter of transplanted tumor was measured twice a week, and the mice were weighed at the same time. The calculation formula of tumor volume (TV) is expressed as TV=1/2×a×b^2, wherein a and b represent length and width, respectively. The relative tumor volume (RTV) was calculated according to the measurement results, and the calculation formula is RTV=Vt/V0, wherein V0 is the tumor volume measured when administered in separate cages (i.e., d0), and Vt is the tumor volume at the time of each measurement.

[7] = male, Balb-c, mouse, plasma, IV, 1 mg/kg
[8] = male, Balb-c, mouse, plasma, PO, 5 mg/kg
[9] = Homo sapiens, COLO 205, 72 hours, CCK-8, class symbols
[10] = Homo sapiens, COLO 205, 72 hours, CCK-8, numeric values

half-life at 1 μM [1]: 4 min
half-life at 1 μM [2]: 3 min
half-life at 1 μM [3]: 40 min
Compound: Cc1cccc([C@@H](CO)NC(=O)[C@@H](C)N2Cc3ccc(-c4nc(NC5CCOCC5)ncc4Cl)cc3C2=O)c1 [Comparative compound 1, (R)-2-(6-(5-Chloro-2-((tetrahydro-2H-pyran-4-yl)amino)pyrimidin-4-yl)-1-oxoisoindolin-2-yl)-N—((S′)-2-hydroxy-1l-(in-tolyl)ethyl)propanamide, reference compound]

Compound: Cc1cccc([C@@H](CO)NC(=O)[C@@H](C)N2Cc3ncc(-c4nc(NC5CCOCC5)ncc4Cl)cc3C2=O)c1 [Comparative compound 3, (R)-2-(3-(5-Chloro-2-((tetrahydro-2H-pyran-4-yl)amino)pyrimidin-4-yl)-5-oxo-5,7-dihydro-6H-pyrrolo[3,4-b]pyridin-6-yl)-N—((S)-2-hydroxy-1-(m-tolyl)ethyl)propanamide, reference compound]
half-life at 1 μM [1]: 6 min
IC50 (Colo-205 cells; Homo sapiens, COLO 205, 72 h): 53.1 nM
half-life at 1 μM [2]: 6 min
half-life at 1 μM [3]: 201 min

Compound: Cc1cccc([C@@H](CO)NC(=O)[C@@H](C)N2Cc3c(F)cc(-c4nc(NC5CCOCC5)ncc4Cl)cc3C2=O)c1 [Comparative compound 4, (R)-2-(6-(5-Chloro-2-((tetrahydro-2H-pyran-4-yl)amino)pyrimidin-4-yl)-4-fluoro-1-oxoisoindolin-2-yl)-N—((S)-2-hydroxy-1-(m-tolyl)ethyl)propanamide, reference compound]
half-life at 1 μM [1]: 3 min
IC50 (Colo-205 cells; Homo sapiens, COLO 205, 72 h): 37.8 nM
half-life at 1 μM [2]: 3 min
half-life at 1 μM [3]: 60 min

stability in liver microsomes (in words) ([4]; rat and human, compared with the comparative compounds 1 and 4): significantly improved
stability in liver microsomes (in words) ([4]; rat, dog and human, compared with the comparative compound 1): significantly improved
Liver microsomal stability T1/2 [1]: 10 min and 15 min
IC50 (Colo-205 cells; 72 hours, CCK-8, class symbols): < 100 nM
Liver microsomal stability T1/2 [2]: 18 min
IC50 (ERK1/2 kinase; numeric values): 0.7 nM
Liver microsomal stability T1/2 [3]: 60 min and 70 min
Compound: Cc1cccc([C@@H](CO)NC(=O)[C@@H](C)N2Cc3ccc(-c4nc(NC5CCOCC5)ncc4Cl)c(F)c3C2=O)c1 [Embodiment 25]
enzyme inhibitory activity (in words) (ERK1/2 kinase): extremely strong enzyme inhibitory activity

F ([5]; PO 5 mg/kg vs IV 1 mg/kg): 52%
AUC(0-inf) [5, 7]: 0.407 µM·h
AUC(0-t) [5, 7]: 0.397 µM·h
MRT inf [5, 7]: 30 min
clearance [5, 7]: 75 mL/min/kg
half-life [5, 7]: 84 min
Vd ([5]; male, Balb-c, mouse, plasma, IV, 1 mg/kg, read-out: Vss): 2 L/kg
AUC(0-inf) [5, 8]: 1.06 µM·h
AUC(0-t) [5, 8]: 1.05 µM·h
Cmax [5, 8]: 1170 nM
Tmax [5, 8]: 18 min
half-life [5, 8]: 90 min
Compound: Cc1cccc([C@@H](CO)NC(=O)[C@@H](C)N2Cc3ccc(-c4nc(NC5CCOCC5)ncc4F)c(F)c3C2=O)c1 [Embodiment 31, (R)-2-(7-Fluoro-6-(5-fluoro-2-((tetrahydro-2H-pyran-4-yl)amino)pyrimidin-4-yl)-1-oxoisoindolin-2-yl)-N—((S)-2-hydroxy-1-(m-tolyl)ethyl)propanamide]
T/C [6]: 27.9%
Initial weight (D0) ([6]; D0): 20.1 g
Terminal weight (D21) ([6]; D21): 21.7 g
Initial tumor volume ([6]; initial): 96 ± 21 mm^3
Terminal tumor volume ([6]; terminal): 271 ± 128 mm^3

IC50 (Colo-205 cells; [9]): < 100 nM
IC50 (ERK1/2 kinase; numeric values): < 1 nM
Compound: Cc1cccc([C@@H](CN)NC(=O)[C@@H](C)N2Cc3ccc(-c4nc(NC5CCOCC5)ncc4F)c(F)c3C2=O)c1 [Embodiment 36]
cell proliferation inhibitory activity (in words) (Colo-205 cells): strong cell proliferation inhibitory activity
enzyme inhibitory activity (in words) (ERK1/2 kinase): extremely strong enzyme inhibitory activity

IC50 (Colo-205 cells; [9]): 100 to 1000 nM
IC50 (ERK1/2 kinase; class symbols): < 10 nM
Compound: C[C@H](C(=O)N[C@H](CO)c1cccc(Cl)c1)N1Cc2ccc(-c3nc(NC4CCC(F)(F)CC4)ncc3F)c(F)c2C1=O [Embodiment 38]

IC50 (Colo-205 cells; [9]): 100 to 1000 nM
IC50 (ERK1/2 kinase; class symbols): < 10 nM
Compound: C[C@H](C(=O)N[C@H](CO)c1cccc(Cl)c1)N1Cc2ccc(-c3nc(NC4CCC(O)C(F)C4)ncc3F)c(F)c2C1=O (stereo partly drawn) [Embodiment 39]
enzyme inhibitory activity (in words) (ERK1/2 kinase): extremely strong enzyme inhibitory activity

IC50 (Colo-205 cells; [9]): < 100 nM
IC50 (ERK1/2 kinase; numeric values): < 1 nM
Compound: Cc1cc([C@@H](CO)NC(=O)[C@@H](C)N2Cc3ccc(-c4nc(NC5CCOCC5)ncc4F)c(F)c3C2=O)ccn1 [Embodiment 41]

IC50 (Colo-205 cells; [9]): < 100 nM
IC50 (ERK1/2 kinase; class symbols): < 10 nM
Compound: COc1cc(F)cc([C@@H](CO)NC(=O)[C@@H](C)N2Cc3ccc(-c4nc(NC5CC(F)(F)C5)ncc4F)c(F)c3C2=O)c1 [Embodiment 43]

IC50 (Colo-205 cells; [9]): < 100 nM
IC50 (ERK1/2 kinase; numeric values): < 1 nM
Compound: COc1cc(F)cc([C@@H](CO)NC(=O)[C@@H](C)N2Cc3ccc(-c4nc(Nc5ccnn5C)ncc4F)c(F)c3C2=O)c1 [Embodiment 45]
cell proliferation inhibitory activity (in words) (Colo-205 cells): strong cell proliferation inhibitory activity
enzyme inhibitory activity (in words) (ERK1/2 kinase): extremely strong enzyme inhibitory activity

IC50 (Colo-205 cells; [9]): 100 to 1000 nM
IC50 (ERK1/2 kinase; class symbols): < 10 nM
Compound: C[C@H](C(=O)NCc1cccc(N(C)C)n1)N1Cc2ccc(-c3nc(NC4CCOCC4)ncc3F)c(F)c2C1=O [Embodiment 47]

IC50 (Colo-205 cells; [9]): < 100 nM
IC50 (ERK1/2 kinase; class symbols): < 10 nM
Compound: C[C@H](C(=O)N[C@H](CO)c1cccc(Cl)c1)N1Cc2ccc(-c3nc(NC4CC[C@H](O)[C@@H](F)C4)ncc3F)c(F)c2C1=O (stereo partly drawn) [Embodiment 50]

IC50 (Colo-205 cells; [10]): 165 nM
IC50 (ERK1/2 kinase; class symbols): < 10 nM
Compound: Cn1nccc1Nc1nccc(-c2ccn([C@H](CO)c3ccc(Cl)c(F)c3)c(=O)c2)n1 [GDC0994, reference compound]

IC50 (Colo-205 cells; [10]): 316 nM
IC50 (ERK1/2 kinase; class symbols): < 10 nM
Compound: Cn1nccc1Nc1nccc(-c2cc3c(s2)C(C)(C)N(CCN2CCOCC2)C3=O)n1 [LY3214996, reference compound]

Compound: (R)-2-(6-(5-Chloro-2-((tetrahydro-2H-pyran-4-yl)amino)pyrimidin-4-yl)-4-fluoro-1-oxoisoindolin-2-yl)-N—((S)-2-hydroxy-1-(m-tolyl)ethyl)propanamide [Comparative compound 4, reference compound]
IC50 (Colo-205 cells; 72 hours, CCK-8, class symbols): > 1000 nM
IC50 (ERK1/2 kinase; numeric values): 105 nM
